Laboratory results as given in patent publication US20260248722A1, “METHOD FOR CARTILAGE REGENERATION AND REGROWTH FOLLOWING INJURY” (ELUCIDERM INC., priority 2021, published 2026).

What was measured:
[1] = cited from earlier work
[2] = system: 2 mm biopsy punch wound in the center of the cartilaginous region; conditions: XAV939 dissolved in DMSO; cited from earlier work
ear punch wound = conditions: topical application, dissolved in DMSO; cited from earlier work
CRE, F-κB, or TGF-β = conditions: cited from earlier work
[3] = system: 2 mm biopsy punch wound in the center of the cartilaginous region of each ear; assay: Cartilage regrowth in mouse ears after 2 mm biopsy punch wound (Example 2); type: in vivo, C57Bl/6J mice; conditions: XAV939 in DMSO every day for 30 days
Source text: C57Bl/6J mice were purchased from The Jackson Laboratory (Bar Harbor, ME, USA) and maintained by PPY. C57Bl/6J mice (at least 3 months of age) were anesthetized with 3-5% isoflurane in O2 administered using Tabletop Laboratory Animal Anesthesia System (VetEquip Inc., Pleasanton, CA, USA). A 2 mm biopsy punch wound was made in the center of the cartilaginous region of each ear using a disposable biopsy punch (Acuderm Inc., Fort Lauderdale, FL, USA) as described previously (Rai, M. F. et al, 2021, Arthritis Rheum., 64:2300-2310). […] In order to quantify closure of the wounds, ears were excised following mouse sacrifice, fixed and placed on microscope slides for examination by way of the digital camera being affixed to a Micromaster Inverted microscope (Thermo Fisher Scientific, Waltham, MA, USA). […] Sections of the tissue were then stained with Trichome blues, imaged and analyzed by way of an Olympus DP71 microscope camera (Olympus America, Center Valley, PA, USA). […] For quantification of wound closure, ears were excised after the mice were sacrificed, placed on microscope slides (Denville Scientific, South Plainfield, NJ, USA) and imaged using Nikon Coolpix 8700 affixed to Micromaster Inverted microscope (Thermo Fisher Scientific, Waltham, MA, USA). […]

Oc1nc(-c2ccc(C(F)(F)F)cc2)nc2c1CSCC2 [XAV939, 3,5,7,8-Tetrahydro-2-[4-(trifluoromethyl)phenyl]-4H-thiopyrano[4,3-d]pyrimidin-4-one]
aqueous solubility [1]: < 1 µg/mL | cartilage regeneration and healing following acute injury [2]: increased cartilage regeneration and healing | fibrosis (scarring) (ear punch wound): reduced fibrosis | rate of wound closure (ear punch wound): significantly increased | effect on CRE, F-κB, or TGF-β (CRE, F-κB, or TGF-β): does not affect | nature and character of the cartilage regrowth in the wounds, compared to DMSO control [3]: improved
